{"source": "paper PMC8824275", "about": "“Gastrointestinal Stability and Cytotoxicity of Bacteriocins From Gram-Positive and Gram-Negative Bacteria: A Comparative in vitro Study” (Frontiers in Microbiology, 2022)", "key": {"[1]": {"system": "S. aureus ATCC 6538", "type": "cell-based, Staphylococcus aureus", "details": "for Total activity: broth microdilution", "text": "(§1) Microcin J25 was produced by Escherichia coli MC4100 carrying the plasmid PTUC 202 ([Solbiati et al., 1999]). For the antibacterial activity of pure compounds and digestion mixture, Listeria ivanovii HPB28 (Canada Health Protection Branch) was used as indicator strain for nisin and pediocin PA-1, while Staphylococcus aureus ATCC 6538 (ATCC) and Salmonella enterica subsp. enterica serovar Newport ATCC 6962 (later referred to as S. Newport, ATCC) were used as indicator strains for bactofencin A (M14L, M18L) and microcin J25, respectively. L. ivanovii HPB28 and S. aureus were cultured in Tryptic Soy (Difco Laboratories, Spark, MD, United States) supplemented with 0.6% yeast extract (TSBYE), at 30 and 37°C, respectively. S. Newport was cultured at 37°C overnight in Luria-Bertani (LB) (Difco Laboratories, Spark, MD, United States). All strains were maintained at –80°C as stock cultures in their corresponding culture media supplemented with 20% glycerol, and propagated twice at 24 h intervals before use.\n(§2) Quantitative determination of inhibitory activity of bacteriocins was carried out using the broth microdilution method as described by [Ben Said et al. (2020)]. Two-fold serial dilutions of bacteriocins (125 μL) were prepared in an appropriate medium in a clear 96-well flat-bottom microtiter plate. Indicator strains were diluted to 10^5 CFU/mL, from which 50 μL were added to each well. The microtiter plates were incubated for 24 h under appropriate conditions, and optical densities were recorded at 595 nm (Infinite M200, Tecan, Switzerland). Control wells contained untreated culture and appropriate medium (blanks). The number of inhibition wells was noted and inhibition activities were calculated in μg/mL."}, "[2]": {"system": "sheep erythrocytes", "details": "sheep blood cells, 33.75 μM (113 μg/mL); ref Paiva et al., 2012; cited from earlier work", "procedure": "(§3) Hemolytic activity is used for initial toxicity assessment and estimation of therapeutic index. Nisin remains to be the most studied bacteriocin, while there are very few data available for the other bacteriocins. […] Hemolytic activity of nisin A (Nisaplin®) at 3.35 μg/mL concentration was reported to be 6% in human red blood cells. In another study by [Maher and McClean (2006)], hemolytic activity exerted by 230 μM (771 μg/mL) nisin A (Nutrition 21) was shown ..."}, "[3]": {"system": "Vero cells", "details": "cited from earlier work", "text": "(§4) To the best of our knowledge, this is the first study that evaluates the cytotoxicity of several bacteriocins with different structures, mechanisms of actions and spectra of inhibitory activity."}, "[4]": {"system": "HepG2 cells", "details": "ref Paiva et al., 2012; cited from earlier work", "text": "as §4"}, "[5]": {"system": "MCF-7 cells", "details": "ref Paiva et al., 2012; cited from earlier work", "text": "as §4"}, "[6]": {"system": "L. ivanovii HPB 28", "type": "cell-based, Listeria ivanovii", "details": "broth microdilution", "text": "as §1, §2"}, "[7]": {"system": "SV40 cells", "details": "700 AU/mL (approximately 10–20 mg/mL), trypan blue, ref Murinda et al., 2003; cited from earlier work", "text": "as §4"}, "[8]": {"details": "cited from earlier work", "text": "There are limited number of studies regarding the stability of bacteriocins in the GI tract. It has been shown that bacteriocins can be degraded by proteolytic enzymes such as pepsin, trypsin and chymotrypsin in the stomach or intestine ([Fernandez et al., 2013]). […] However, in the current study, pediocin PA-1(M31L) and bactof ..."}, "[9]": {"system": "rat erythrocytes", "assay": "Hemolytic activity", "type": "cell-based", "details": "0.4 to 400 μg/mL, 45 min, 37°C", "procedure": "The experiment was performed after prior approval from the local ethics committee by TransBIOTech laboratory. Hemolytic potential of bacteriocins was evaluated according to [FDA (2005)]. Rat blood was collected into a heparinized tube and added in a 1:1 volume (100 μL) to serially diluted compounds (in 100 μL PBS), in a conical 96-well plate. 10% Triton X-100 and PBS were used as a positive and negative controls, respectively. The plates were sealed and incubated for 45 min at 37°C prior to centrifugation at 2,000 g for 10 min to pellet red blood cells. The supernatant was then transferred into clear 96-well plates and the absorbance was read at 540 nm (hemoglobin). The percentage of hemolysis was calculated as follow, with RBC standing for red blood cells:\n%Hemolysis=AbsorbanceofRBCtreatedwithbacteriocins-AbsorbanceofRBCtreatedwithPBS/AbsorbanceofRBCtreatedwithTritonX100-AbsorbanceofRBCtreatedwithPBS"}, "[10]": {"system": "human cells relevant to oral cavity", "details": "concentration up to 200 μg/mL; ref Shin et al. (2015); cited from earlier work"}, "[11]": {"system": "Caco-2", "details": "MTT assay, ref Maher and McClean, 2006; cited from earlier work", "text": "as §4"}, "[12]": {"system": "HT29 (epithelial cells)", "details": "MTT assay, ref Maher and McClean, 2006; cited from earlier work", "text": "as §4"}, "[13]": {"system": "S. Newport ATCC 6962", "type": "cell-based, Salmonella enterica subsp. enterica serovar Newport", "details": "for Total activity: broth microdilution", "text": "as §1, §2"}, "[14]": {"system": "human red blood cells", "details": "750 μM (2.5 mg/mL), ref Begde et al., 2011; cited from earlier work", "procedure": "as §3"}, "[15]": {"details": "after oral conditions (SSF, 2 min, 37°C)"}, "[16]": {"details": "pure compound without GI digestion, 24 h, OD 595 nm"}, "[17]": {"details": "TIM-1 dynamic model, ref Kheadr et al., 2010"}}, "note": "Where two headings read alike, the source gives them in different places. Bridge positions count the residues as written; N and C are the ends. Square brackets hold non-standard residues; d marks the D form. Ends that are not written are not given here. Peptide text beside a SMILES is read from it. Abu = CC[C@H](N)C(=O)O; Dhb = C/C=C(\\N)C(=O)O; Dha = C=C(N)C(=O)O"}
{"compound": "CC(C)C[C@@H]1NC(=O)CNC(=O)[C@H]([C@@H](C)O)NC(=O)[C@@H]2CCCN2C(=O)[C@H](CC(C)C)NC(=O)CNC(=O)[C@H](CC(N)=O)NC(=O)[C@H](CC(N)=O)NC(=O)[C@H](Cc2ccc(O)cc2)NC(=O)[C@H](C(C)C)NC(=O)[C@H](CCCNC(=N)N)NC(=O)[C@@H](NC(=O)[C@H](CCCNC(=N)N)NC(=O)[C@H](Cc2c[nH]cn2)NC(=O)[C@H](CCCCN)NC(=O)[C@H](CCCCN)NC(=O)[C@H](CCCNC(=N)N)NC(=O)[C@@H](N)CCCCN)CSSC[C@@H](C(N)=O)NC(=O)[C@H](Cc2c[nH]c3ccccc23)NC(=O)[C@H](CCCNC(=N)N)NC(=O)[C@H](Cc2ccc(O)cc2)NC1=O", "note": "[bactofencin A(M14L, M18L)] (H-KRKKHRCRVYNNGLPTGLYRWC-NH2; disulfide 7-22 (inferred); N-terminus and C-terminus assumed)", "values": [{"measurement": "MIC", "setting": "[1]; ATCC 6538, 24 h", "value": 5, "unit": "µg/mL"}, {"measurement": "Total activity", "setting": "[1]; [15]", "value": 10.4, "unit": "AU/mL"}, {"measurement": "Total activity", "setting": "[1]; [16]", "value": 10.4, "unit": "AU/mL"}]}
{"compound": "nisin C [nisin C (Chrisin®)]", "values": [{"measurement": "Hemolysis", "setting": "[2]", "value": 6.6, "unit": "%"}, {"measurement": "Concentration reducing viability to 50%", "setting": "[3]; ref Paiva et al., 2012", "value": 45.21, "unit": "µg/mL"}, {"measurement": "Concentration reducing viability to 50%", "setting": "[4]", "value": 352, "unit": "µg/mL"}, {"measurement": "Concentration reducing viability to 50%", "setting": "[5]", "value": 352, "unit": "µg/mL"}]}
{"compound": "pediocin PA-1 (KYYGNGVTCGKHSCSVDWGKATTCIINNGAMAWATGGHQGNHKC; disulfide 9-14, 24-44; UniProt P29430 19-62, looked up) [wild-type bacteriocin naturally produced by Pediococcus acidilactici, literature data]", "values": [{"measurement": "Total activity", "setting": "[6]; [15]", "value": 0.18, "unit": "AU/mL"}, {"measurement": "Total activity", "setting": "[6]; [16]", "value": 0.18, "unit": "AU/mL"}, {"measurement": "Cell viability reduced to", "setting": "[7]", "value": 36, "unit": "%"}, {"measurement": "Stability in the small intestine", "setting": "[8]; [17]", "value": "completely degraded"}, {"measurement": "Stability in the stomach", "setting": "[8]; [17]", "value": "stable"}]}
{"compound": "KYYGNGVTCGKHSCSVDWGKATTCIINNGALAWATGGHQGNHKC-OH (disulfide 9-14, 24-44) [pediocin PA-1(M31L)]", "values": [{"measurement": "Concentration above which dose-dependent increase in percentage of hemolysis was shown", "setting": "[9]", "value": "higher than 50 μg/mL"}]}
{"compound": "nisin Z (I[Dhb]AI[Dha]LC[Abu]PGCK[Abu]GALMGCNMK[Abu]A[Abu]CNCSIHV[Dha]K; thioether (positions not given here); not fully specified (residues 7, 11, 19, 26, 28, bridges); UniProt P29559 24-57, looked up) [nisin Z (Handary, Brussels, Belgium), commercial nisin Z from Handary]", "values": [{"measurement": "Toxic effect", "setting": "[10]", "value": "did not exert any toxic effect"}]}
{"compound": "CC[C@H](C)[C@H](NC(=O)CNC(=O)[C@@H](NC(=O)[C@H](Cc1ccccc1)NC(=O)[C@H](Cc1ccc(O)cc1)NC(=O)[C@@H]1CCC(=O)NCC(=O)NCC(=O)N[C@@H](C)C(=O)NCC(=O)N[C@@H](Cc2cnc[nH]2)C(=O)N[C@@H](C(C)C)C(=O)N2CCC[C@H]2C(=O)N1)C(C)C)C(=O)NCC(=O)N[C@H](C(=O)N1CCC[C@H]1C(=O)N[C@H](C(=O)N[C@@H](CO)C(=O)N[C@@H](Cc1ccccc1)C(=O)N[C@@H](Cc1ccc(O)cc1)C(=O)NCC(=O)O)[C@@H](C)CC)[C@@H](C)O", "note": "[microcin J25] (GGAGHVPEYFVGIGTPISFYG-OH; lactam N-8)", "values": [{"measurement": "Degradation upon exposure to pancreatin (small intestine)", "setting": "[8]", "value": "only partially degraded"}, {"measurement": "Resistance to the proteolytic enzymes in the stomach", "setting": "[8]", "value": "highly resistant"}]}
{"compound": "nisin A (I[Dhb]AI[Dha]LC[Abu]PGCK[Abu]GALMGCNMK[Abu]A[Abu]CHCSIHV[Dha]K; thioether (positions not given here); not fully specified (residues 7, 11, 19, 26, 28, bridges); UniProt P13068 24-57, looked up) [nisin A (Nisaplin®), commercial nisin A product Nisaplin (Danisco)]", "values": [{"measurement": "EC50", "setting": "[3]; LDH cytotoxicity assay, ref Vaucher et al. (2010)", "value": 0.62, "unit": "µg/mL"}]}
{"compound": "nisin A (I[Dhb]AI[Dha]LC[Abu]PGCK[Abu]GALMGCNMK[Abu]A[Abu]CHCSIHV[Dha]K; thioether (positions not given here); not fully specified (residues 7, 11, 19, 26, 28, bridges); UniProt P13068 24-57, looked up) [nisin A (Nutrition 21), commercial nisin A (Nutrition 21)]", "values": [{"measurement": "IC50", "setting": "[11]", "value": 385.7, "unit": "µg/mL"}, {"measurement": "IC50", "setting": "[12]", "value": 301.5, "unit": "µg/mL"}]}
{"compound": "CC[C@H](C)[C@H](NC(=O)CNC(=O)[C@@H](NC(=O)[C@H](Cc1ccccc1)NC(=O)[C@H](Cc1ccc(O)cc1)NC(=O)[C@@H]1CCC(=O)NCC(=O)NCC(=O)N[C@@H](C)C(=O)NCC(=O)N[C@@H](Cc2c[nH]cn2)C(=O)N[C@@H](C(C)C)C(=O)N2CCC[C@H]2C(=O)N1)C(C)C)C(=O)NCC(=O)N[C@H](C(=O)N1CCC[C@H]1C(=O)N[C@H](C(=O)N[C@@H](CO)C(=O)N[C@@H](Cc1ccccc1)C(=O)N[C@@H](Cc1ccc(O)cc1)C(=O)NCC(=O)O)[C@@H](C)CC)[C@@H](C)O", "note": "[microcin J25] (GGAGHVPEYFVGIGTPISFYG-OH; lactam N-8 (inferred); C-terminus assumed)", "values": [{"measurement": "MIC", "setting": "[13]; ATCC 6962, 24 h", "value": 0.0356, "unit": "µg/mL"}, {"measurement": "Total activity", "setting": "[13]; after gastric conditions (SGF, pepsin 2000 U/mL, lipase 60 U/mL, pH 3, 90 min, 37°C)", "value": 0.0712, "unit": "AU/mL"}, {"measurement": "Total activity", "setting": "[13]; [15]", "value": 0.0712, "unit": "AU/mL"}, {"measurement": "Total activity", "setting": "[13]; after small intestinal conditions (SIF, bile salt 10 mmol/L, pancreatin 100 U/mL, pH 7, 2 h, 37°C)", "value": 0.356, "unit": "AU/mL"}, {"measurement": "Total activity", "setting": "[13]; [16]", "value": 0.0712, "unit": "AU/mL"}]}
{"compound": "nisin", "values": [{"measurement": "Relative hemolysis", "setting": "[14]", "value": 10, "unit": "%"}]}
